According to patent publication US20150104868A1, “Methods of Maintaining and Improving Biological Cell Function and Activity” (GARGILL INCORPORATED, priority 2012, published 2015):

Tested on: CRL 1730 HUVECs
Test: Microarray transcriptomics of HUVEC (HGERT/HG, HG/NG)
Assay type: cell-based, human
[1] = Breast cancer, Cysteine/gluathione
[2] = Breast cancer, Heat shock protein
[3] = Breast cancer, ILK signaling (integrin linked kinase)
[4] = Breast cancer, Mitotic cell cycle
[5] = Breast cancer, One carbon metabolism
[6] = Breast cancer, Peptidase activity
[7] = Breast cancer, Plasminogen activators
[8] = Breast cancer, Reactive oxygen species
[9] = Breast cancer, Tyrosine phosphatase activity
[10] = HUVEC, 5 mM ERT + 30 mM glucose vs 30 mM glucose

OC[C@@H](O)[C@@H](O)CO [ERT, meso-1,2,3,4-tetrahydroxybutane]
HGERT/HG TRIT1 (TRNA isopentenyltransferase 1) (Breast cancer, ATP metabolism): 0.98 Ω | HGERT/HG VPS4B (Vacuolar protein sorting 4 homolog B (S. cerevisiae)) (Breast cancer, ATP metabolism): 0.99 Ω | HGERT/HG YME1L1 (YME1-like 1 (S. cerevisiae)) (Breast cancer, ATP metabolism): 1.00 Ω | HGERT/HG CORO1A (Coronin, actin binding protein, 1A) (Breast cancer, Actin binding): 0.94 Ω | HGERT/HG PLEC1 (Plectin) (Breast cancer, Actin binding): Ψ 1.03 | HGERT/HG JUP (Junction plakoglobin) (Breast cancer, Alpha-catenin binding): Ψ 1.01 | HGERT/HG AHCYL1 (Adenosylhomocysteinase-like 1) [1]: Ψ 1.01 | HGERT/HG ATIC (5-aminoimidazole-4-carboxamide ribonucleotide formyltransferase/IMP cyclohydroiase) [1]: 0.99 Ω | HGERT/HG ESD (Esterase D) [1]: 0.99 Ω | HGERT/HG DCK (Deoxycytidine kinase) (Breast cancer, Deoxycytidine metabolism): 0.98 Ω | HGERT/HG COL4A6 (Collagen, type IV, alpha 6) (Breast cancer, Focal adhesion): Ψ 1.03 | HGERT/HG DNAJC8 (DnaJ (Hsp40) homolog, subfamily C, member 8) [2]: 0.99 Ω | HGERT/HG DNAJC11 (DnaJ (Hsp40) homolog, subfamily C, member 11) [2]: Ψ 1.01 | HGERT/HG ACTN1 (Breast cancer, Hypoxia response): 0.99 Ω | HGERT/HG ACTN1 (Actinin, alpha 1) [3]: Ψ 1.01 | HGERT/HG FBLIM1 (Flamin binding LIM protein 1) [3]: Ψ 1.02 | HGERT/HG NCK2 (NCK adaptor protein 2) [3]: Ψ 1.01 | HGERT/HG PXN (Paxillin) [3]: Ψ 1.01 | HGERT/HG RHOB (Ras homolog gene family, member B) [3]: Ψ 1.02 | HGERT/HG RHOJ (Ras homolog gene family, member J) [3]: Ψ 1.02 | HGERT/HG RSU1 (Ras suppressor protein 1) [3]: 0.99 Ω | HGERT/HG VIM (Vimentin) [3]: 1.00 Ω | HGERT/HG ACTN1 (Actinin, alpha 1) (Breast cancer, Insulin binding): Ψ 1.01 | HGERT/HG FBLM1 (Filamin binding LIM protein 1) (Breast cancer, Insulin binding): Ψ 1.02 | HGERT/HG NCK2 (NCK adaptor protein 2) (Breast cancer, Insulin binding): Ψ 1.01 | HGERT/HG PIK3R1 (Phosphoinositide-3 kinase, regulatory subunit 1 (alpha)) (Breast cancer, Insulin binding): Ψ 1.03 | HGERT/HG PXN (Paxillin) (Breast cancer, Insulin binding): Ψ 1.01 | HGERT/HG RHOB (Ras homolog gene family, member B) (Breast cancer, Insulin binding): Ψ 1.02 | HGERT/HG RHOJ (Ras homolog gene family, member J) (Breast cancer, Insulin binding): Ψ 1.02 | HGERT/HG RSU1 (Ras suppressor protein 1) (Breast cancer, Insulin binding): 0.99 Ω | HGERT/HG VIM (Vimentin) (Breast cancer, Insulin binding): 1.00 Ω | HGERT/HG WDRG (WD repeat domain 6) (Breast cancer, Insulin binding): Ψ 1.02 | HGERT/HG AZI1 (S-azacytidine induced 1) [4]: Ψ 1.02 | HGERT/HG CEP135 (Centrosomal protein 135kDa) [4]: Ψ 1.01 | HGERT/HG CEP250 (Centrosomal protein 250kDa) [4]: 0.99 Ω | HGERT/HG FGFR1OP (FGFR1 oncogene partner) [4]: 0.99 Ω | HGERT/HG MPHOSPH6 (M-phase phosphoprotein G) [4]: 0.99 Ω | HGERT/HG UBA3 (Ubiquitin-like modifier activating enzyme 3) [4]: 0.99 Ω | HGERT/HG AHCYL1 (Adenosylhomocysteinase-like 1) [5]: Ψ 1.01 | HGERT/HG ATIC (5-aminoimdazole-4-carboxamide ribonucleotide formyltransferase/IMP cyclohydroiase) [5]: 0.99 Ω | HGERT/HG ESD (Esterase D) [5]: 0.99 Ω | HGERT/HG OSTM1 (Osteopetrosis associated transmembrane protein 1) (Breast cancer, Osteoclast differentiation): 0.99 Ω | HGERT/HG CORO1A (Coronin, actin binding protein, 1A) (Breast cancer, PI3 kinase binding): 0.94 Ω | HGERT/HG ATXN3 (Ataxin 3) [6]: 0.99 Ω | HGERT/HG OTUD5 (OTU domain containing 5) [6]: Ψ 1.01 | HGERT/HG SENP3 (SUMO1/sentrin/SMT3 sepcific peptidase 3) [6]: Ψ 1.01 | HGERT/HG WFDC12 (WAP four-disulfide core domain 12) [6]: 0.96 Ω | HGERT/HG BAD2 (Bromodomain containing 2) [7]: Ψ 1.02 | HGERT/HG RHOJ (Ras homolog gene family, member J) [7]: Ψ 1.02 | HGERT/HG COX8A (Cytochrome c oxidase subunit VIIIA (ubiquitous)) [8]: 0.99 Ω | HGERT/HG JUP (Junction plankoglobin) [8]: Ψ 1.01 | HGERT/HG MPHOSPH6 (M-phase phosphoprotein 6) [8]: 0.99 Ω | HGERT/HG SDHD (Succinate dehydrogenase complex, subunit D, integral membrane protein) [8]: 0.98 Ω | HGERT/HG SMOX (Spermine oxidase) [8]: 0.99 Ω | HGERT/HG SOS1 (Son of sevenless homolog 1 (Drosophila)) [8]: Ψ 1.06 | HGERT/HG TCF12 (Transcription factor 12) [8]: 0.99 Ω | HGERT/HG TGM2 (Transglutaminase 2 (C polypeptide, protein-glutamine-gamma-glutamyltransferase)) [8]: Ψ 1.01 | HGERT/HG PAQR3 (Progestin and adipoQ receptor family member III) (Breast cancer, Receptor activity): 0.98 Ω | HGERT/HG EID2 (EP300 interacting inhibitor of differentiation 2) (Breast cancer, SMAD binding): 0.99 Ω | HGERT/HG PGRMC2 (Progesterone receptor membrane component 2) (Breast cancer, Steroid hormone receptor activity): 0.98 Ω | HGERT/HG HS3ST1 (Heparan sulfate (glucosamine) 3-O-sulfotransferase 1) (Breast cancer, Sulfotransferase acfivity): Ψ 1.03 | HGERT/HG DUSP23 (Dual specificity phosphatase 23) [9]: 0.99 Ω | HGERT/HG PTPLAD1 (Protein tyrosine phosphatase-like A domain containing 1) [9]: Ψ 1.01 | transcriptomic changes, HG/NG vs HGERT/HG (HUVEC, HG conditions): reverses many of the transciptomic changes observed in its absence | HGERT/HG transcript ABCB10 [10]: 0.98 Ω | HGERT/HG transcript ACTL6A [10]: 0.98 Ω | HGERT/HG transcript ACTN1 [10]: Ψ 1.01 | HGERT/HG transcript ACTR5 [10]: Ψ 1.01 | HGERT/HG transcript AGTPBP1 [10]: 0.98 | HGERT/HG transcript AHCYL1 [10]: Ψ 1.01 | HGERT/HG transcript ANKZF1 [10]: 0.99 | HGERT/HG transcript ATAD1 [10]: 0.99 Ω | HGERT/HG transcript ATAD3B [10]: Ψ 1.01 | HGERT/HG transcript ATIC [10]: 0.99 Ω | HGERT/HG transcript ATP2C1 [10]: 0.99 Ω | HGERT/HG transcript ATP5E [10]: 0.99 Ω | HGERT/HG transcript ATP5O [10]: 1.00 Ω | HGERT/HG transcript ATP13A1 [10]: Ψ 1.02 | HGERT/HG transcript AZI1 [10]: Ψ 1.02 | HGERT/HG transcript BACE1 [10]: Ψ 1.02 | HGERT/HG transcript BBS10 [10]: 0.98 Ω | HGERT/HG transcript BRD2 [10]: Ψ 1.02 | HGERT/HG transcript Bcl2l12 [10]: Ψ 1.02 | HGERT/HG transcript C3orf26 [10]: 0.99 Ω | HGERT/HG transcript C6orf66 [10]: 0.99 Ω | HGERT/HG transcript C20orf7 [10]: 0.99 Ω | HGERT/HG transcript CARS [10]: 1.00 Ω | HGERT/HG transcript CENPK [10]: 0.97 Ω | HGERT/HG transcript CEP135 [10]: Ψ 1.01 | HGERT/HG transcript CEP250 [10]: 0.99 | HGERT/HG transcript CHMP7 [10]: 0.99 | HGERT/HG transcript CIB1 [10]: 1.00 Ω | HGERT/HG transcript CKAPS [10]: Ψ 1.01 | HGERT/HG transcript CNIH2 [10]: 0.99 | HGERT/HG transcript COG6 [10]: 0.99 | HGERT/HG transcript COL4A6 [10]: Ψ 1.03 | HGERT/HG transcript CORO1A [10]: 0.94 Ω | HGERT/HG transcript COX8A [10]: 0.99 Ω | HGERT/HG transcript CSNK1G1 [10]: Ψ 1.02
